Tests used:
BaF3 = assay: Inhibition of EGFR D770-N771 ins NPG mutant in mouse BaF3 cells assessed as reduction in EGFR phosphorylation incubated for 24 hrs by Western blot analysis; assay type: cell-based; conditions: dose 1-100 nM
[1] = biological target: T1, Tyrosine-protein kinase TXK (Homo sapiens) (UniProt P42681); assay: Inhibition of TXK (unknown origin) at 500 nM relative to control
T1 sequence (whole entry): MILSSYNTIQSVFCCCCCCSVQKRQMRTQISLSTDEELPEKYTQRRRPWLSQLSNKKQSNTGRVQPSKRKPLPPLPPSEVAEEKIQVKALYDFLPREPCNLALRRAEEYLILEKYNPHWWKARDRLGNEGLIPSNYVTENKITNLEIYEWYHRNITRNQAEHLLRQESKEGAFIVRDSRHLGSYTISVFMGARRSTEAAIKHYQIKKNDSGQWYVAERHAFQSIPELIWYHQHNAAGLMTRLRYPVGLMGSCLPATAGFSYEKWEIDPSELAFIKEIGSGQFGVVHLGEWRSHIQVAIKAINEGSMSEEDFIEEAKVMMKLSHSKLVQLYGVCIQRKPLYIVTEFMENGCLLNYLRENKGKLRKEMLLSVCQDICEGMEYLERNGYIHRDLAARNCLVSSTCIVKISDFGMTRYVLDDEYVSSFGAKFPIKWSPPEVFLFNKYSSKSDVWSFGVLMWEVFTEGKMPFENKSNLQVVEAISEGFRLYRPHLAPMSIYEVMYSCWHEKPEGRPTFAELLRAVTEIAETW

[2] = Toxicity in BALB/c mouse harboring HER2-A775-G776 ins YVMA mutant implanted with mouse BaF3 cells assessed as change in body weight at 10 to 20 mg/kg, po administered once daily for 13 to 14 days; assay type: organism-based; conditions: in vivo, dose lower 10 mg/kg, time lower 13 day, dose upper 20 mg/kg, time upper 14 day

C=CC(=O)N1CCC(Oc2cc3c(Nc4cccc(Cl)c4F)ncnc3cc2O[C@H]2CCOC2)CC1
inhibition (BaF3): Dose-Dependent Effect
inhibition [1]: > 20%
Activity [2]: Non-Toxic
